For data set [1] the following is noted: in humans; cited from earlier work.
Data set [2] in a line: Elimination T1/2 of roxithromycin in a cat. The format is in vivo. The following applies: administered to a cat; route and dose not stated. The procedure: The phrase “elimination half life” or “T1/2,” as used herein, has the conventional meaning used in pharmacokinetics, i.e., the time taken for the maximum plasma concentration (Cmax) of a drug to reduce by 50%.
Therefore, the rate of clearance of roxithromycin from a cat, i.e., as measured by the T1/2, is much slower than when roxithromycin is administered to, for example, a human. The unexpectedly slow rate of clearance (long T1/2) allows bacterial infections in cats to be advantageously treated with a single administration of roxithromycin administered either orally or by injection. Treating a bacterial infection using a single dose of roxithromycin is simpler, more cost effective, and results in better patient compliance. Furthermore, single dose administration of roxithromycin is believed to reduce the risk of microbial strains emerging that are resistant to roxithromycin. Single dose administration of roxithromycin by injection is advantageous because administration by injection bypasses liver metabolism and the single administration precludes multiple visits to the veterinarian. Single dose administration orally, however, is less painful and can permit administration without requiring a visit to the veterinarian.

In data set [3] the test system is Enterococcus faecalis. Nature of the data set: MIC, single disc method. The format is cell-based. The procedure: (§1) Typically, to be effective, the minimum inhibitory concentration of the roxithromycin against a specific bacteria should be less than 10 μg/mL, preferably less than 5 μg/mL, more preferably less than 2 μg/mL, even more preferably less than 1 μg/mL, and most preferably less than 0.5 μg/mL. The activity of roxithromycin against a bacteria can be determined using standard dilution tests. For example, the minimum inhibitory concentrations can be determined using the disk diffusion susceptibility testing method described in Clinical Microbiology Procedures Handbook, volume 1, edited by Henry D. Isenberg, American Society for Microbiology, 1992, section 5.1 or the well known method of Bauer et al. “Antibiotic Susceptibility Testing by a Standardized Single Disc Method,” Amer. J. Clin. Pathol., 45, p. 493-496.
(§2) FIG. 1 provides a graphical representation of the average plasma serum concentration of roxithromycin as a function of time for the 5 cats that were administered a single dose of roxithromycin by subcutaneous injection at a dose of 10 mg/kg as a formulation containing 200 mg/mL of roxithromycin in 10% propylene glycol in glycerol formal. […] J. Clin. Pathol., 45, p. 493-496.

In data set [4] the test system is Streptococcus pyogenes. Briefly: MIC, single disc method. The class given is cell-based. The procedure:
as §1, §2

The subject of data set [5] is Pasteurella multocida. Nature of the data set: MIC, single disc method. The format is cell-based. As to the method:
as §1, §2

Data set [6] concerns Staphylococcus aureus. Briefly: MIC, single disc method. The class given is cell-based. The procedure: as §1, §2
In data set [7] the test system is Streptococcus pneumoniae. Nature of the data set: MIC, single disc method. The class given is cell-based. The procedure:
as §1, §2

For data set [8], the system named is Escherichia coli. Nature of the data set: MIC, single disc method. The class given is cell-based. The procedure: as §1, §2
For data set [9], the system named is Clostridium perfringes. Nature of the data set: MIC, single disc method. The format is cell-based. The procedure: as §1, §2
Data set [10] concerns Bacillus subtilis. Briefly: MIC, single disc method. The class given is cell-based. The procedure: as §1, §2
A short description of data set [11]: Serum concentration after single subcutaneous injection to cats. The class given is in vivo. The conditions noted are these: cat, single subcutaneous injection 10 mg/kg, 200 mg/mL in 10% propylene glycol in glycerol formal. The procedure:
Five cats (mixed breed of various sizes, males and female, approximately 4 kg) were administered 10 mg/kg of a roxithromycin composition by subcutaneous injection between the shoulder blades. The roxithromycin composition was prepared by weighing 5.128 g of roxithromycin (purity 97.5%) into a 25 mL volumetric flask, adding 2.5 mL of propylene glycol, and filling to volume with stabilized glycerol formal.
Cats were kept in a stainless steel, suspended, wire bottom cage, at least 3′×3′, provided with a litter box in an environmentally controlled room (22±3° C., a relative humidity of 30-80%, a 12 hour light/dark schedule, and room ventilation of approximately 10-12 air changes per hour.) Tap water was available ad libitum and the cats were fed PMI Feline Lab Diet #5003 or other commercial product.
Blood samples were collected on Day-1 and approximately 1 mL of whole blood was collected at 1, 8, 24, 36, 48, 60, and 72 hr following dosing and twice-daily thereafter through study termination on day 10. […] The dose site was monitored daily during the study.
The serum was analyzed by high pressure liquid chromatograph (“HPLC”) using the following procedure: […]
The serum concentration of roxithromycin was then determined by comparing the area under the curve for the HPLC peak corresponding to roxithromycin to a standard curve of peak areas v. known concentrations of roxithromycin in serum. […]

For data set [12] the following is noted: cat, single oral dose 20 mg/kg, capsule of powdered roxithromycin.
For data set [13] the following is noted: literature; cited from earlier work.

Like-named read-outs stand apart in the source and are kept apart here.

Turning to roxithromycin, the half-life (as a rule, the time needed for the level to fall by half in the phase considered) in [1] is 10 to 12 h. Also, the “elimination T1/2” value in data set [2] is listed as “about 73.5 hours”. Moreover, the “Minimum Inhibitory Concentration (MIC)” value is 8 µg/mL in data set [3]; 0.25 µg/mL in [4]; 1 µg/mL in data set [5]; 0.25 µg/mL in data set [6]; 0.25 µg/mL in data set [7]; 32 µg/mL in data set [8]. The “Minimum Inhibitory Concentration (MIC)” value stood at 2 µg/mL in data set [9] and 0.25 µg/mL in data set [10]. Further, the “time for which serum concentration exceeds the MIC for several bacterial organisms” value is “more than 190 hours” in [11] and “at least 150 hours” in [12]. Besides, in data set [13], the “stability in acidic environments” value is reported as “acid labile”.
